Results as given in PubChem BioAssay (NCI).
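Here, GI50 denotes the concentration required for 50% inhibition of growth. TGI denotes the concentration required for complete inhibition of growth.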

Assays:
Assay in all cases: DTP human tumour cell line panel, 384-well format
OVCAR-8 ovarian = system: OVCAR-8 ovarian
OVCAR-3 ovarian = system: OVCAR-3 ovarian
MDA-MB-435 melanoma = system: MDA-MB-435 melanoma
OVCAR-4 ovarian = system: OVCAR-4 ovarian
U251 glioblastoma = system: U251 glioblastoma
TK-10 renal = system: TK-10 renal
NCI-H460 NSCLC = system: NCI-H460 NSCLC
DU-145 prostate = system: DU-145 prostate
MDA-MB-468 breast = system: MDA-MB-468 breast
SW-620 colon = system: SW-620 colon
SK-OV-3 ovarian = system: SK-OV-3 ovarian
A549 NSCLC = system: A549 NSCLC
NCI-H23 lung = system: NCI-H23 lung
K-562 leukemia = system: K-562 leukemia
UACC-62 melanoma = system: UACC-62 melanoma
786-0 renal = system: 786-0 renal
NCI/ADR-RES ovarian = system: NCI/ADR-RES ovarian
SF-295 CNS = system: SF-295 CNS
IGROV1 ovarian = system: IGROV1 ovarian
HCT-116 colon = system: HCT-116 colon
SNB-75 CNS = system: SNB-75 CNS
HL-60(TB) leukemia = system: HL-60(TB) leukemia
T-47D breast = system: T-47D breast
NCI-H322M lung = system: NCI-H322M lung
M14 melanoma = system: M14 melanoma
RXF 393 renal = system: RXF 393 renal
CCRF-CEM leukemia = system: CCRF-CEM leukemia
CAKI-1 renal = system: CAKI-1 renal
PC-3 prostate = system: PC-3 prostate
SNB-19 CNS = system: SNB-19 CNS
HS 578T breast = system: HS 578T breast
SK-MEL-5 melanoma = system: SK-MEL-5 melanoma
A498 renal = system: A498 renal
OVCAR-5 ovarian = system: OVCAR-5 ovarian
SN12C renal = system: SN12C renal
UO-31 renal = system: UO-31 renal
MCF7 breast = system: MCF7 breast
SK-MEL-2 melanoma = system: SK-MEL-2 melanoma
HOP-92 NSCLC = system: HOP-92 NSCLC
HCC-2998 colon = system: HCC-2998 colon
EKVX NSCLC = system: EKVX NSCLC
SK-MEL-28 melanoma = system: SK-MEL-28 melanoma
MOLT-4 leukemia = system: MOLT-4 leukemia
ACHN renal = system: ACHN renal
NCI-H522 lung = system: NCI-H522 lung
NCI-H226 lung = system: NCI-H226 lung
SF-268 CNS = system: SF-268 CNS

Compound: CS(=O)(=O)CCNCc1ccc(-c2ccc3ncnc(Nc4ccc(OCc5cccc(F)c5)c(Cl)c4)c3c2)o1
- GI50 (OVCAR-8 ovarian): 1720 nM
- TGI (OVCAR-8 ovarian): 3730 nM
- GI50 (OVCAR-3 ovarian): 1580 nM
- TGI (OVCAR-3 ovarian): 2960 nM
- GI50 (MDA-MB-435 melanoma): 4970 nM
- TGI (MDA-MB-435 melanoma): 9250 nM
- GI50 (OVCAR-4 ovarian): 1720 nM
- TGI (OVCAR-4 ovarian): 3190 nM
- GI50 (U251 glioblastoma): 1840 nM
- TGI (U251 glioblastoma): 3350 nM
- GI50 (TK-10 renal): 644 nM
- TGI (TK-10 renal): 4500 nM
- GI50 (NCI-H460 NSCLC): 1860 nM
- TGI (NCI-H460 NSCLC): 3290 nM
- GI50 (DU-145 prostate): 1390 nM
- TGI (DU-145 prostate): 3380 nM
- GI50 (MDA-MB-468 breast): 45.2 nM
- TGI (MDA-MB-468 breast): 260 nM
- GI50 (SW-620 colon): 1990 nM
- TGI (SW-620 colon): 3500 nM
- GI50 (SK-OV-3 ovarian): 785 nM
- TGI (SK-OV-3 ovarian): 5170 nM
- GI50 (A549 NSCLC): 1360 nM
- TGI (A549 NSCLC): 2690 nM
- GI50 (NCI-H23 lung): 2070 nM
- TGI (NCI-H23 lung): 4070 nM
- GI50 (K-562 leukemia): 1690 nM
- TGI (K-562 leukemia): 3070 nM
- GI50 (UACC-62 melanoma): 1950 nM
- TGI (UACC-62 melanoma): 3430 nM
- GI50 ([…]-0 renal): 1340 nM
- TGI (786-0 renal): 2620 nM
- GI50 (NCI/ADR-RES ovarian): 1560 nM
- TGI (NCI/ADR-RES ovarian): 3470 nM
- GI50 (SF-295 CNS): 1960 nM
- TGI (SF-295 CNS): 3850 nM
- GI50 (IGROV1 ovarian): 751 nM
- TGI (IGROV1 ovarian): 2870 nM
- GI50 (HCT-116 colon): 1850 nM
- TGI (HCT-116 colon): 3450 nM
- GI50 (SNB-75 CNS): 2280 nM
- TGI (SNB-75 CNS): 5280 nM
- GI50 (HL-60(TB) leukemia): 2260 nM
- TGI (HL-60(TB) leukemia): 3730 nM
- GI50 (T-47D breast): 605 nM
- TGI (T-47D breast): 5690 nM
- GI50 (NCI-H322M lung): 179 nM
- TGI (NCI-H322M lung): 1140 nM
- GI50 (M14 melanoma): 1930 nM
- TGI (M14 melanoma): 3350 nM
- GI50 (RXF 393 renal): 1460 nM
- TGI (RXF 393 renal): 2790 nM
- GI50 (CCRF-CEM leukemia): 1680 nM
- TGI (CCRF-CEM leukemia): 3050 nM
- GI50 (CAKI-1 renal): 1460 nM
- TGI (CAKI-1 renal): 2970 nM
- GI50 (PC-3 prostate): 1750 nM
- TGI (PC-3 prostate): 3280 nM
- GI50 (SNB-19 CNS): 4430 nM
- TGI (SNB-19 CNS): 9080 nM
- GI50 (HS 578T breast): 1970 nM
- TGI (HS 578T breast): 3480 nM
- GI50 (SK-MEL-5 melanoma): 1770 nM
- TGI (SK-MEL-5 melanoma): 3160 nM
- GI50 (A498 renal): 1260 nM
- TGI (A498 renal): 2520 nM
- GI50 (OVCAR-5 ovarian): 2740 nM
- TGI (OVCAR-5 ovarian): 7500 nM
- GI50 (SN12C renal): 2160 nM
- TGI (SN12C renal): 7100 nM
- GI50 (UO-31 renal): 1090 nM
- TGI (UO-31 renal): 3890 nM
- GI50 (MCF7 breast): 1670 nM
- TGI (MCF7 breast): 3060 nM
- GI50 (SK-MEL-2 melanoma): 1600 nM
- TGI (SK-MEL-2 melanoma): 2960 nM
- GI50 (HOP-92 NSCLC): 1370 nM
- TGI (HOP-92 NSCLC): 2680 nM
- GI50 (HCC-2998 colon): 1810 nM
- TGI (HCC-2998 colon): 3220 nM
- GI50 (EKVX NSCLC): 777 nM
- TGI (EKVX NSCLC): 3130 nM
- GI50 (SK-MEL-28 melanoma): 1800 nM
- TGI (SK-MEL-28 melanoma): 3210 nM
- GI50 (MOLT-4 leukemia): 1490 nM
- TGI (MOLT-4 leukemia): 2820 nM
- GI50 (ACHN renal): 398 nM
- TGI (ACHN renal): 8090 nM
- GI50 (NCI-H522 lung): 102 nM
- TGI (NCI-H522 lung): 1480 nM
- GI50 (NCI-H226 lung): 2120 nM
- TGI (NCI-H226 lung): 4750 nM
- GI50 (SF-268 CNS): 2630 nM
- TGI (SF-268 CNS): 6970 nM
